Laboratory results reported in BindingDB's records for patent US20240294509 (Euregen Biopharma Co., 2024).
pIC50: −log10 of the molar value.

Key:
[1] = biological target: T1, Protein mono-ADP-ribosyltransferase TIPARP (Homo sapiens, UniProt Q7Z3E1); test: Inhibition of Compounds on PARP1/7 Enzyme Activity
T1 sequence (Q7Z3E1 whole entry): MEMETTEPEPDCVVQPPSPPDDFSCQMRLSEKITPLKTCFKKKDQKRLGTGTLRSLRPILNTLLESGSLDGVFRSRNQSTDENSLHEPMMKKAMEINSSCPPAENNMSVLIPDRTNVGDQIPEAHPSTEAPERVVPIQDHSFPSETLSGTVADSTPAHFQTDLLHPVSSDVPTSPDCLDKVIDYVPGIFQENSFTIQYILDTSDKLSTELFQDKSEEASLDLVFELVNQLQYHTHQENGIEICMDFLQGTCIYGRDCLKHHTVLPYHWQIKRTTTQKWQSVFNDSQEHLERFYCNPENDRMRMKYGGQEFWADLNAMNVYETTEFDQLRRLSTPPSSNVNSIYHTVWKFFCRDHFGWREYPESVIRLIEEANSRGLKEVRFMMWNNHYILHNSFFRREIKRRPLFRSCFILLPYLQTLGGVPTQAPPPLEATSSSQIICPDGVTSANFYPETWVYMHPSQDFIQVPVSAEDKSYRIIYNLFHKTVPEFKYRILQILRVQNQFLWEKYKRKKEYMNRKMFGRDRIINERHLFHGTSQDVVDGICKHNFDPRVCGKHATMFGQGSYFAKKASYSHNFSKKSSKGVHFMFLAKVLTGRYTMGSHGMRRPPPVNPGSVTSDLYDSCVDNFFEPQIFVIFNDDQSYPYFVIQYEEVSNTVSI
Source text: (§1) Fit the dose-response data with standard dilutions using Prism GraphPad software and calculate the concentration required to achieve 5000 inhibition of PARP1 or PARP7 enzyme activity (IC50).

[2] = biological target: Poly [ADP-ribose] polymerase 1 (Homo sapiens, UniProt P09874); test: Inhibition of Compounds on PARP1/7 Enzyme Activity
Sequence of Poly [ADP-ribose] polymerase 1 (P09874 whole entry): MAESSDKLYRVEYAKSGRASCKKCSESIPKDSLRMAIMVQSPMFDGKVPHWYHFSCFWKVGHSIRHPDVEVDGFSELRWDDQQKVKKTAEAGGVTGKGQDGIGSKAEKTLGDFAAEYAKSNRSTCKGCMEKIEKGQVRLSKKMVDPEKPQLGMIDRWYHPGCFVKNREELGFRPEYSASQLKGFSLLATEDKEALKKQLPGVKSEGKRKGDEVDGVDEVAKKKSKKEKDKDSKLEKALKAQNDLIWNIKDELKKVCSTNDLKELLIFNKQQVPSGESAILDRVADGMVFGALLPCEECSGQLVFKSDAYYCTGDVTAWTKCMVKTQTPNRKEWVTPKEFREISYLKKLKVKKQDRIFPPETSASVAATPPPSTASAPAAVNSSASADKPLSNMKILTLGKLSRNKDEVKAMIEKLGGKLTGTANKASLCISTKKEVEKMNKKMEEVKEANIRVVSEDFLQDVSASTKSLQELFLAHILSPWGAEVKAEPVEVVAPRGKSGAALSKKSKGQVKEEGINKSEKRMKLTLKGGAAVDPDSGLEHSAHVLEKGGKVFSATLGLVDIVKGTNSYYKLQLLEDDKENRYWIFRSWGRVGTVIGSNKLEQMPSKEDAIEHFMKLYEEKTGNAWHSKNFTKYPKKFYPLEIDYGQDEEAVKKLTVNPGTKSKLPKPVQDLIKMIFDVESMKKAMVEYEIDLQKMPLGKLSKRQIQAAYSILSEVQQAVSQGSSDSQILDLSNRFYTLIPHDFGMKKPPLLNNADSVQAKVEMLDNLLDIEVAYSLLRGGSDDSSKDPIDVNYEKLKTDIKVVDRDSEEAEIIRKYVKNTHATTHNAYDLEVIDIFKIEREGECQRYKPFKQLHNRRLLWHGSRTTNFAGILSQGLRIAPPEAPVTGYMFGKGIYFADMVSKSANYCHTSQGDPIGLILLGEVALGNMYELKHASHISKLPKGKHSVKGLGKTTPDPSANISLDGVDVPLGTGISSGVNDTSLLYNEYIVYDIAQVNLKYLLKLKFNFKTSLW
Source text: as §1

SMILES	pIC50 [1]	pIC50 [2]
O=C(CC[C@@H]1CCCN1c1cc(C(F)(F)F)c(=O)[nH]n1)N1CCN(c2ncc(C(F)(F)F)cn2)CC1	8.54	8.89
O=C(CC[C@@H]1C[C@H](Oc2ccccc2)CN1c1cc(C(F)(F)F)c(=O)[nH]n1)N1CCN(c2ncc(C(F)(F)F)cn2)CC1 [US20240294509, Compound 19]	8.36	5.70
O=C(COC[C@@H]1CCCN1c1cc(C(F)(F)F)c(=O)[nH]n1)N1CCN(c2ncc(C(F)(F)F)cn2)CC1 [US20240294509, Compound 1]	8.40	6.53
O=C(CC[C@@H]1C[C@@H](F)CN1c1cc(C(F)(F)F)c(=O)[nH]n1)N1CCN(c2ncc(C(F)(F)F)cn2)CC1 [US20240294509, Compound 20]	8.49	7.31

The next lines start with the values.

pIC50 [1]	pIC50 [2]	SMILES
8.52	6.75	O=C(CC[C@@H]1C[C@@H](Oc2cncnc2)CN1c1cc(C(F)(F)F)c(=O)[nH]n1)N1CCN(c2ncc(C(F)(F)F)cn2)CC1 [US20240294509, Compound 63]
7.09	4.81	O=C(CC[C@@H]1C[C@H](Oc2cc(F)cc(F)c2)CN1c1cc(C(F)(F)F)c(=O)[nH]n1)N1CCN(c2ncc(C(F)(F)F)cn2)CC1 [US20240294509, Compound 55]
7.27	5.50	O=C(CC[C@@H]1C[C@H](Oc2ccc(F)c(F)c2)CN1c1cc(C(F)(F)F)c(=O)[nH]n1)N1CCN(c2ncc(C(F)(F)F)cn2)CC1 [US20240294509, Compound 58]
7.89	7.82	O=C(CC[C@@H]1C[C@@H](Oc2ccc(F)cc2F)CN1c1cc(C(F)(F)F)c(=O)[nH]n1)N1CCN(c2ncc(C(F)(F)F)cn2)CC1 [US20240294509, Compound 50]
7.59	7.10	O=C(CC[C@@H]1C[C@@H](Oc2cccc(Cl)c2)CN1c1cc(C(F)(F)F)c(=O)[nH]n1)N1CCN(c2ncc(C(F)(F)F)cn2)CC1 [US20240294509, Compound 49]
